Data: patent publication US6369034B1, “Functionalized alkyl and alenyl side chain derivatives of glycinamides as farnesyl transferase inhibitors” (Warner-Lambert Company, priority 1998, dated 2002)
Read-outs that look alike come from different tables or passages of the source.

What was measured:
[1] = target: T1, SF9 affinity purified rat FPT (Rattus norvegicus, UniProt Q02293+Q04631); experiment: PFT inhibitory activity; type: biochemical; conditions: average of two tests
T1 construct: made in house; host or cells: Sf9 insect cells
Protocol: The protein:farnesyl transferase (PFT) or farnesyl protein transferase (FPT) inhibitory activity of compounds of the present invention were assayed in HEPES buffer (pH 7.4) containing 5 mM potassium phosphate and 20 μM ZnCl2. The solution also contained 5 mM DTT (dithiothreitol), 5 mM MgCl2, and 0.1% PEG 8000. Assays were performed in 96 well plates (Wallec) and employed solutions composed of varying concentrations of a compound of the present invention in 10% DMSO (dimethylsulfoxide). Upon addition of both substrates, radiolabeled farnesyl pyrophosphate ([1^3H], specific activity 15-30 Ci/mmol, final concentration 134 nM) and (biotinyl)-Ahe-Thr-Lys-Cys-Val-Ile-Met ([3aS[3a alpha, 4 beta, 6a alpha]-hexahydro-2-oxo-1H-thieno[3,4-d]imidazole-5-pentanoic acid]-[7-aminoheptanoic acid]-Thr-Lys-Cys-Val-Ile-Met) (Ahe is 7-aminoheptanoic acid, Thr is threonine, Lys is lysine, Cys is cysteine, Val is valine, Ile is isoleucine, and Met is methionine) (final concentration 0.2 4μM), the enzyme reaction was started by addition of SF9 affinity purified rat FPT. After incubation at 30° C. for 30 minutes, the reaction was terminated by diluting the reaction 2.5-fold with a stop buffer containing 1.5 M magnesium acetate, 0.2 M H3PO4, 0.5% BSA (bovine serum albumin), and strepavidin beads (Amersham) at a concentration of 1.3 mg/mL. After allowing the plate to settle for 30 minutes at room temperature, radioactivity was quantitated on a microBeta counter (Model 1450, Wallec). The assay was also carried out without 5 mM potassium phosphate.

[2] = system: Ras protein in ras-transformed cells; experiment: Gel Shift Assay; type: cell-based; conditions: 18-hour incubation, read-out: Gel Shift (μM) MED
Protocol: Twenty-four hours after planting 2×10^6 ras-transformned cells per treatment condition, the farnesylation inhibitor is added at varying concentrations. Following an 18-hour incubation period, cells are lysed in phosphate-buffered saline containing 1% Triton X-100, 0.5% sodium deoxycholate, and 0.1% SDS (sodium dodecyl sulfate), pH 7.4 in the presence of several protease inhibitors (PMSF (phenylmethylsulfonylfluoride), antipain, leupeptin, pepstatin A, and aprotinin all at 1 μg/mL). Ras protein is immunoprecipitated from the supernatants by the addition of 3 μg v-H-ras Ab-2 (Y13-259 antibody from Oncogene Science). After overnight immunoprecipitation, 30 μL of a 50% protein G-Sepharose slurry (Pharmacia) is added followed by 45-minute incubation. Pellets are resuspended in 2×tris-glycine loading buffer (Novex) containing 5% mercaptoethanol and then denatured by 5 minutes boiling prior to electrophoresis on 14% Tris-glycine SDS gels. Using Western transfer techniques, proteins are transferred to nitrocellulose membranes followed by blocking in blocking buffer. Upon overnight incubation with primary antibody (pan-ras Ab-2 from Oncogene Science), an antimouse HRP (horse radish peroxidase) conjugate secondary antibody (Amersham) is employed for detection of the ras protein. Blots are developed using ECL(enhanced chemiluminescence) techniques (Amersham).

[3] = system: human lung carcinoma with K-ras mutation and p53 deletion; conditions: nude mice; cited from earlier work
[4] = system: mammary and salivary carcinomas; conditions: daily administration; ras transgenic mice; cited from earlier work
[5] = HEPES buffer pH 7.4, without 5 mM potassium phosphate, read-out: IC50 (μM) Hepes
[6] = HEPES buffer pH 7.4 containing 5 mM potassium phosphate, read-out: IC50 (μM) Hepes/5 mM KPO4^−2

SMILES | IC50 [1, 5] [µM] | IC50 [1, 6] [µM] | minimal effective concentration [2] [µM] | tumor growth [3] | tumor regression [4]
C[C@@H](c1ccccc1)N(CC(=O)NCC(C)(C)c1ccccc1)C(=O)[C@H](Cc1c[nH]cn1)NC(=O)OCc1ccccc1 [Example 1, Benzyl N-((1S)-1-(1H-4-imidazolylmethyl)-2-2-[(2-methyl-2-phenylpropyl)amino]-2-oxoethyl[(1S)-1-phenylethyl]amino-2-oxoethyl)carbamate] | 0.57 | 0.001 | 0.01 |  | 
C[C@H](c1ccccc1)N(CC(=O)NCC(C)(C)c1ccccc1)C(=O)[C@H](Cc1c[nH]cn1)NC(=O)OCc1ccccc1 [Example 2, Benzyl N-((1S)-1-(1H-4-imidazolylmethyl)-2-2-[(2-methyl-2-phenylpropyl)amino]-2-oxoethyl[(1R)-1-phenylethyl]amino-2-oxoethyl)carbamate] | 8.3 | 0.065 | 1 |  | 
COC(=O)CCN(CC(=O)NCC(C)(C)c1ccccc1)C(=O)[C@H](Cc1c[nH]cn1)NC(=O)OCc1ccccc1 [Example 4, Methyl 3-([(2S)-2-[(benzyloxy)carbonyl]amino-3-(1H-4-imidazolyl)propanoyl]-2-[(2-methyl-2-phenylpropyl)amino]-2-oxoethylamino)propanoate] | 5 | 0.018 | 0.1 |  | 
CC(C)(CNC(=O)CN(CCC(=O)O)C(=O)[C@H](Cc1c[nH]cn1)NC(=O)OCc1ccccc1)c1ccccc1 [Example 5, 3-([(2S)-2-[(Benzyloxy)carbonyl]amino-3-(1H-4-imidazolyl)propanoyl]-2-[(2-methyl-2-phenylpropyl)amino]-2-oxoethylamino)propanoic acid] | 2.3 | < 0.001 | 1 |  | 
CC(C)(CNC(=O)CN(CCN)C(=O)C(Cc1cnc[nH]1)NC(=O)OCc1ccccc1)c1ccccc1 (centres unmarked) [Example 6, [1-{(2-Amino-ethyl)-[(2-methyl-2-phenyl-propylcarbamoyl)-methyl]-carbamoyl}-2-(3H-imidazol-4-yl)-ethyl]-carbamic acid benzyl ester] | 36 | 0.072 | > 1 |  | 
CNCCN(CC(=O)NCC(C)(C)c1ccccc1)C(=O)[C@H](Cc1c[nH]cn1)NC(=O)OCc1ccccc1 [Example 7, Benzyl N-[(1S)-1-(1H-4-imidazolylmethyl)-2-([2-(methylamino)ethyl]-2-[(2-methyl-2-phenylpropyl)amino]-2-oxoethylamino)-2-oxoethyl]carbamate] | > 30 | 0.92 |  |  | 
COCCN(CC(=O)NCC(C)(C)c1ccccc1)C(=O)C(Cc1cnc[nH]1)NC(=O)OCc1ccccc1 (centres unmarked) [Example 8, (2-(3H-Imidazol-4-yl)-1-{(2-methoxy-ethyl)-[(2-methyl-2-phenyl-propylcarbamoyl)-methyl]-carbamoyl}-ethyl)-carbamic acid benzyl ester] | 4.8 | 0.019 | 0.2 |  | 
CN(C)C(=O)CCN(CC(=O)NCC(C)(C)c1ccccc1)C(=O)C(Cc1cnc[nH]1)NC(=O)OCc1ccccc1 (centres unmarked) [Example 13, [1-{(2-Dimethylcarbamoyl-ethyl)-[(2-methyl-2-phenyl-propylcarbamoyl)-methyl]-carbamoyl}-2-(3H-imidazol-4-yl)ethyl]-carbamic acid benzyl ester] | 4 | 0.007 |  |  | 
CSCC[C@H](NC(=O)c1ccc(NC[C@@H](N)CS)cc1-c1ccccc1)C(=O)O [FT1276] |  |  |  | selectively block tumor growth | 
CC[C@H](C)[C@@H](CO[C@@H](Cc1ccccc1)C(=O)N[C@@H](CCS(C)(=O)=O)C(=O)OC(C)C)NC[C@@H](N)CS [L-744,832] |  |  |  |  | caused tumor regression

More lines, in order of falling IC50 [1, 5], values ahead:

IC50 [1, 5] [µM] | IC50 [1, 6] [µM] | SMILES | minimal effective concentration [2] [µM] | tumor growth [3] | tumor regression [4]
2.2 | 0.034 | CC(C)OC(=O)CCN(CC(=O)NCC(C)(C)c1ccccc1)C(=O)[C@H](Cc1c[nH]cn1)NC(=O)OCc1ccccc1 [Example 12, 3-{[2-Benzyloxycarbonylamino-3-(3H-imidazol-4-yl)-propionyl]-[(2-methyl-2-phenyl-prolylcarbamoyl)-methyl]-amino}-propionic acid isopropyl ester] |  |  | 
2.1 | 0.016 | CC(C)(CNC(=O)CN(CCN1CCOCC1)C(=O)[C@H](Cc1c[nH]cn1)NC(=O)OCc1ccccc1)c1ccccc1 [Example 11, Benzyl N-(1S)-1-(1H-4-imidazolylmethyl)-2-[2-[(2-methyl-2-phenylpropyl)amino]-2-oxoethyl(2-morpholinoethyl)amino]-2-oxoethylcarbamate] | 0.2 |  | 
1.4 | 0.011 | C/C=C/CN(CC(=O)NCC(C)(C)c1ccccc1)C(=O)[C@H](Cc1c[nH]cn1)NC(=O)OCc1ccccc1 [Example 9, Benzyl N-[2-((E)-2-butenyl-2-[(2-methyl-2-phenylpropyl)amino]-2-oxoethylamino)-1-(1H-4-imidazolylmethyl1)-2-oxoethyl]carbamate] | 0.01 |  | 
1.2 | 0.006 | CSCCN(CC(=O)NCC(C)(C)c1ccccc1)C(=O)C(Cc1cnc[nH]1)NC(=O)OCc1ccccc1 (centres unmarked) [Example 14, {2-(3H-Imidazol-4-yl)-1-[[(2-methyl-2-phenyl-propylcarbamoyl)-methyl]-(2-methylsulfanyl-ethyl)-carbamoyl]-ethyl}-carbamic acid benzyl ester] | 0.05 |  | 
0.25 | 0.004 | CC(OC(=O)NC(Cc1c[nH]cn1)C(=O)N(CC(=O)NCC(C)(C)c1ccccc1)Cc1ccc(OCc2ccccc2)cc1)c1ccccc1 (centres unmarked) [Example 10, [1-{(4-Benzyloxy-benzyl)-[(2-methyl-2-phenyl-propylcarbamoyl)-methyl]-carbamoyl}-2-(1H-imidazol-4-yl)-ethyl]-carbamic acid 1-phenyl-ethyl ester] | 0.01 |  | 
0.098 | 0.001 | CC(C)(CNC(=O)CN(CC(C)(C)c1ccccc1)C(=O)[C@H](Cc1c[nH]cn1)NC(=O)OCc1ccccc1)c1ccccc1 [Example 3, Benzyl N-[(1S)-1-(1H-4-imidazolylmethyl)-2-((2-methyl-2-phenylpropyl)2-[(2-methyl-2-phenylpropyl)amino]-2-oxoethylamino)-2-oxoethyl]carbamate] | 0.01 |  | 
